Measurements: ChEMBL document CHEMBL1133247, “Synthesis of novel ferrocenyl sugars and their antimalarial activities” (Bioorg Med Chem Lett, 2000)

Key:
FM3A = assay: In vitro cytotoxic activity against mouse mammary tumor FM3A cells; type: functional, cell-based
Plasmodium falciparum = assay: In vitro antimalarial activity against chloroquine-sensitive Plasmodium falciparum FCR3; type: functional, organism-based
[1] = Selectivity is the ratio of mean EC50 value against […] cells to that of EC50 value against Plasmodium falciparum; type: functional

EC50 (Plasmodium falciparum): 0.11 µM
SMILES: C=C[C@H]1CN2CC[C@H]1C[C@H]2[C@H](O)c1ccnc2ccc(OC)cc12 [QUININE]
EC50 (FM3A): 100 µM | Selectivity [1]: 910
